According to publication PMC9790248, “Effects of CYP3A Inhibition, CYP3A Induction, and Gastric Acid Reduction on the Pharmacokinetics of Ripretinib, a Switch Control KIT Tyrosine Kinase Inhibitor” (Clinical Pharmacology in Drug Development, 2022):
Where “and” joins values, the source holds several entries; their conditions need not be identical. Equal entries are not always repeated. Where two headings read alike, the source gives them in different places.

Assays:
[1] = Concentration-corrected QT interval analysis; format: in vivo; settings: across a range of plasma concentration; data on file
Protocol: In the current study, itraconazole was administered as an oral solution on an empty stomach to ensure the highest oral absorption under fasting conditions and minimize gastrointestinal tract irritation during fasting. […] The tolerability of higher exposure is supported by previous safety and PK data.[7], [10] In a phase 1 study of ripretinib in patients with cancer, the maximum tolerated dose was not reached with doses up to ripretinib 200 mg twice daily.[7] Dose escalation to ripretinib 150 mg twice daily was offered to patients in a phase 1 and phase 3 clinical study after radiologic disease progression on 150 mg once daily.[7], [11] […] Steady‐state PK exposure following ripretinib 150 mg twice daily was approximately 2‐fold higher compared with ripretinib 150 mg once daily.[7], [10] […] However, the exposure–safety relationships were relatively shallow, and most AEs were Grades 1 and 2.

Solubility = format: physicochemical
[2] = Stability in human plasma (K2EDTA), bioanalytical validation; format: in vitro ADME; settings: with or without concomitant medications
Protocol: Following the bioanalytical method validation guidance, the analytical method was validated to verify that the assay was a robust and reliable measurement of ripretinib and DP‐5439 in human plasma with dipotassium ethylenediaminetetraacetic acid (K2EDTA) as the anticoagulant. The linear range of method was 2.00–1000 ng/mL for both ripretinib and DP‐5439. The coefficient of variation (CV%) (precision) for intra‐ and interassay at each quality control (QC) level was ≤15.0% (≤20.0% at the LLOQ QC level: 2 ng/mL for both ripretinib and DP‐5439). The mean % Bias (accuracy) at each QC level was within ±15.0% (±20.0% at the LLOQ QC level) from its respective nominal concentration.

[3] = Safety assessment (TEAEs), pantoprazole study; format: in vivo, human
Protocol: Participants were confined to the study center on days 1 through 16. On day 1, participants received an oral dose of ripretinib 50 mg under fasting conditions (Figure 1C). On days 8 through 13, participants received pantoprazole 40 mg once daily. On day 14, participants received pantoprazole 40 mg once daily and ripretinib 50 mg simultaneously under fasting conditions.
Relationship to study drug was assessed by the investigator.
Safety data were summarized as n (%).

[4] = Itraconazole (strong CYP3A inhibitor) DDI study, plasma pharmacokinetics; format: in vivo, human; settings: for AUC(0-t) / AUC(0-inf) / Cmax / half-life / Tmax: both sexes, human, plasma; for AUC(0-t) / AUC(0-inf) / Cmax / half-life: po; for AUC(0-t) / AUC(0-inf) / Cmax / half-life / Tmax / CL/F, arithmetic mean (SD) / CL/F, geometric mean (CV%): fasting; for Tmax: read-out: tmax, median (min, max); for Time postdose that mean plasma concentration remained above the LLOQ: LLOQ 2.00 ng/mL
Protocol: All studies were phase 1, fixed‐sequence, open‐label studies in healthy volunteers. One study consisted of two separate cohorts examining DDIs between ripretinib and itraconazole or pantoprazole, respectively; the rifampin study was conducted separately. Studies and cohorts were enrolled independently. Eligible participants were healthy male or female adults between 18 and 55 years of age with a body mass index (BMI) of ≥18.5 and ≤30 kg/m^2. Good health was confirmed by a physician and based on medical evaluation with no significant findings, including medical history, physical examination, laboratory tests, and 12‐lead electrocardiogram (ECG) at screening and day −1. Participants were required to abstain from alcohol, marijuana, grapefruit, Seville oranges, tangelo, star fruit, and grapefruit‐like products 14 days prior to and during the study. Participants with a positive breath test for Helicobacter pylori were excluded from the pantoprazole study.
Ripretinib and its active metabolite DP‐5439 plasma concentrations were measured using a validated high‐performance liquid chromatography (HPLC) with tandem mass spectrometry (LC‐MS/MS) assay with a lower limit of quantification (LLOQ) of 2.00 ng/mL for both analytes. In this method, the analytes (ripretinib and DP‐5439) and the internal standards (ISs; DCC‐2618‐d5 and DP‐5439‐d5) were released from human plasma samples by protein precipitation. The supernatants were chromatographed using reversed‐phase HPLC with a Betasil® C8 analytical column with deionized water (0.1% formic acid) and 40/60 acetonitrile/acetone (0.1% formic acid) as the mobile phase. Mass spectrometric detection was performed on a triple quadrupole tandem mass spectrometer API 5000 or API 5500 (Applied Biosystems/MDS Sciex, Toronto, Canada) equipped with a turbo ion spray source operated in the positive ionization mode. The source parameters were collision energy 40 eV, collision gas 6 psi, Nebulizer Gas 1, Turbo IonSpray Gas 2, and curtain gas 35 psi. Quantification was obtained by using multiple reaction monitoring mode of the transitions of mass to charge ratio [m/z] 510.3 →417 for DCC‐2618 (ripretinib), m/z 496.2 →403 for DP‐5439, m/z 515.3 →417 for DCC‐2618‐d5, and m/z 501.2 →403 for DP‐5439‐d5.
Plasma concentration–time data were analyzed using noncompartmental methods using Phoenix® WinNonlin® v7.0 (Certara USA Inc., Princeton, New Jersey). Derived PK parameters included area under the concentration–time curve from time 0 to time t (AUC0–t) and area under the concentration–time curve from 0 to infinity (AUC0–∞), maximum observed concentration (Cmax), time of maximum observed concentration (tmax), elimination half‐life (t1/2), apparent systemic clearance, and for DP‐5439, metabolite to parent ratio for AUC0–t, AUC0–∞, and Cmax.
The PK population included all participants who received ≥1 dose ripretinib and had ≥1 nonmissing PK concentration in plasma reported for ripretinib or DP‐5439. The PK evaluable set included all participants in the PK population who had ripretinib PK parameters on both ripretinib dosing days, bioanalytical results for ≥75% of planned analyses, no missed ripretinib doses and ≤2 missed perpetrator (itraconazole, pantoprazole, or rifampin) doses before the second dosing day of ripretinib, and no emesis within 8 hours of ripretinib administration. […]

[5] = ripretinib 50 mg single oral dose + itraconazole 200 mg QD, healthy participants (N = 20)
[6] = ripretinib 50 mg single oral dose alone, healthy participants (itraconazole study, N = 20)
[7] = ripretinib 50 mg with itraconazole 200 mg QD relative to ripretinib alone

With `CCn1c(=O)c(-c2cc(NC(=O)Nc3ccccc3)c(F)cc2Br)cc2cnc(NC)cc21` [Ripretinib] the “Concentration-corrected QT interval analysis” value [1] was “did not suggest particular concern”, the “Solubility, pH dependence” value (Solubility) was “reduced solubility at neutral pH” and the “Stability in human plasma at room temperature” value ([2]; 16 hours at room temperature under normal laboratory lighting) was “stable”. The “Stability in human plasma, freeze–thaw” value ([2]; four cycles of freeze (−20 and −70°C) and thaw (room temperature)) was “stable”, the “Number of TEAEs attributed to study drug” value ([3]; human, in vivo, 28 days) was 42 and the “Participants with TEAEs attributed to study drug per the investigator” value ([3]; human, in vivo, 28 days) was 19 (76%) n (%). The “Total number of TEAEs” value ([3]; human, in vivo, 28 days) was 63, the “Deaths and serious AEs” value ([3]; pantoprazole study, N = 25) was “No deaths occurred and no participants experienced SAEs” and the AUC(0-t) ([4]; 50 mg, ripretinib 50 mg single oral dose alone, healthy participants (itraconazole study, N = 20), read-out: AUC0–t, arithmetic mean (SD)) was 4400 ng·h/mL. For the same molecule, the AUC(0-t) ([4]; 50 mg, ripretinib 50 mg single oral dose alone, healthy participants (itraconazole study, N = 20), read-out: AUC0–t, geometric mean (CV%)) was 4060 ng·h/mL, the AUC(0-inf) ([4]; 50 mg, ripretinib 50 mg single oral dose alone, healthy participants (itraconazole study, N = 20), read-out: AUC0–∞, arithmetic mean (SD)) was 4500 ng·h/mL and the AUC(0-inf) ([4]; 50 mg, ripretinib 50 mg single oral dose alone, healthy participants (itraconazole study, N = 20), read-out: AUC0–∞, geometric mean (CV%)) was 4180 ng·h/mL. It also gave a Cmax ([4]; 50 mg, ripretinib 50 mg single oral dose alone, healthy participants (itraconazole study, N = 20), read-out: Cmax, arithmetic mean (SD)) of 321 ng/mL, a Cmax ([4]; 50 mg, ripretinib 50 mg single oral dose alone, healthy participants (itraconazole study, N = 20), read-out: Cmax, geometric mean (CV%)) of 291 ng/mL and a half-life ([4]; 50 mg, ripretinib 50 mg single oral dose alone, healthy participants (itraconazole study, N = 20), read-out: t1/2, arithmetic mean (SD) (converted)) of 17 h. For the same molecule, the half-life ([4]; 50 mg, ripretinib 50 mg single oral dose alone, healthy participants (itraconazole study, N = 20), read-out: t1/2, geometric mean (CV%) (converted)) was 16 h, the AUC(0-t) ([4]; ripretinib 50 mg single oral dose + itraconazole 200 mg QD, healthy participants (N = 20), read-out: AUC0–t, arithmetic mean (SD)) was 8900 ng·h/mL and the AUC(0-t) ([4]; ripretinib 50 mg single oral dose + itraconazole 200 mg QD, healthy participants (N = 20), read-out: AUC0–t, geometric mean (CV%)) was 8060 ng·h/mL. The AUC(0-inf) ([4]; ripretinib 50 mg single oral dose + itraconazole 200 mg QD, healthy participants (N = 20), read-out: AUC0–∞, arithmetic mean (SD)) was 9190 ng·h/mL, the AUC(0-inf) ([4]; ripretinib 50 mg single oral dose + itraconazole 200 mg QD, healthy participants (N = 20), read-out: AUC0–∞, geometric mean (CV%)) was 8310 ng·h/mL and the Cmax ([4]; ripretinib 50 mg single oral dose + itraconazole 200 mg QD, healthy participants (N = 20), read-out: Cmax, arithmetic mean (SD)) was 404 ng/mL. The Cmax ([4]; ripretinib 50 mg single oral dose + itraconazole 200 mg QD, healthy participants (N = 20), read-out: Cmax, geometric mean (CV%)) was 395 ng/mL, the half-life ([4]; ripretinib 50 mg single oral dose + itraconazole 200 mg QD, healthy participants (N = 20), read-out: t1/2, arithmetic mean (SD) (converted)) was 27 h and the half-life ([4]; ripretinib 50 mg single oral dose + itraconazole 200 mg QD, healthy participants (N = 20), read-out: t1/2, geometric mean (CV%) (converted)) was 24 h. The Tmax [4, 5] was 4 h, the Tmax [4, 6] was 3 h and the “Increase in exposure with daily itraconazole coadministration” value ([4]; ripretinib 50 mg + itraconazole 200 mg QD vs ripretinib alone) was “up to 99%”. For the same molecule, the “Time postdose that mean plasma concentration remained above the LLOQ” value ([4]; ripretinib 50 mg alone (itraconazole study)) was 96 h, the “CL/F, arithmetic mean (SD)” value [4, 5] was 7 (3) L/h and the “CL/F, geometric mean (CV%)” value [4, 5] was 6 (48) L/h. For the same molecule, the “CL/F, arithmetic mean (SD)” value [4, 6] was 13 (5) L/h, the “CL/F, geometric mean (CV%)” value [4, 6] was 12 (42) L/h and the “Geometric LS mean ratio of AUC0–t” value [4, 7] was 198%. For the same molecule, the “Geometric LS mean ratio of AUC0–∞ (90% CI)” value [4, 7] was 199 (174–227) %, the “Geometric LS mean ratio of Cmax (90% CI)” value [4, 7] was 136% and 136 (116–159) % and the “Geometric LS mean ratio of AUC0–∞ (90% CI)” value ([4]; ripretinib 50 mg with itraconazole 200 mg QD relative to ripretinib alone, listed as ripretinib) was 199%. For the same molecule, the “Time postdose that mean plasma concentration remained above the LLOQ” value ([4]; ripretinib 50 mg with itraconazole) was “up to 168 hours”.
